According to the supplement of paper PMC10307832:

What was measured:
Experiment in all cases: relative viability (nuclei count vs DMSO), 5 days (fraction); higher = more cells survive
XMD13-2 = compound: C1CC1C(=O)NC2=NNC3=C2C=CC(=C3)C4=CC(=CC=C4)C(=O)NC5CC5 [XMD13-2]
Summary of the method: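 Lung cancer cell lines in 1536-well plates were kept overnight at 37 °C, then pinned with five library-drug doses (not always all listed) spaced by √10 on vehicle-anchored plates. After 5 days without medium change, cells were fixed, permeabilised and Hoechst-stained in one step, imaged at 4×, and nuclei were counted with MetaXpress. Viability is treated-well nuclei divided by vehicle-well nuclei, taken as the median over plates. Plates passed only with control CV below 25% and at least one doubling.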

Dasatinib + Linsitinib = compound: Cc1nc(Nc2ncc(C(=O)Nc3c(C)cccc3Cl)s2)cc(N2CCN(CCO)CC2)n1 [Dasatinib] + C[C@]1(O)C[C@@H](c2nc(-c3ccc4ccc(-c5ccccc5)nc4c3)c3c(N)nccn32)C1 [Linsitinib] (partner 1 µM)
Summary of the method: (§1)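 Lung cancer cell lines were seeded in 1536-well plates and dosed by pin tool the next day, with either a single drug or a fixed anchor-drug dose combined with five library-drug doses (not always all listed) spaced in √10 steps. Five days later, one step fixed the cells and stained their nuclei (final 0.05% Triton X-100, 1% formaldehyde, 1 ug/ml Hoechst), and nuclei were counted on 4× images. Relative viability is the nuclei count in treated wells divided by the count in vehicle wells, and each value is the median of duplicate plates.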

Dasatinib + Lapatinib = compound: Cc1nc(Nc2ncc(C(=O)Nc3c(C)cccc3Cl)s2)cc(N2CCN(CCO)CC2)n1 [Dasatinib] + CS(=O)(=O)CCNCc1ccc(-c2ccc3ncnc(Nc4ccc(OCc5cccc(F)c5)c(Cl)c4)c3c2)o1 [Lapatinib] (partner 2 µM)
Summary of the method: as §1

XMD13-2 + Olaparib = compound: C1CC1C(=O)NC2=NNC3=C2C=CC(=C3)C4=CC(=CC=C4)C(=O)NC5CC5 [XMD13-2] + O=C(c1cc(Cc2n[nH]c(=O)c3ccccc23)ccc1F)N1CCN(C(=O)C2CC2)CC1 [Olaparib] (partner 8 µM)
Summary of the method: as §1

| Cell Line | relative viability (XMD13-2; 0.05 µM) | relative viability (XMD13-2; 0.1581 µM) | relative viability (XMD13-2; 0.5 µM) | relative viability (XMD13-2; 1.581 µM) | relative viability (XMD13-2; 5 µM) | relative viability (Dasatinib + Linsitinib; first compound 0.005 µM) | relative viability (Dasatinib + Linsitinib; first compound 0.01581 µM) | relative viability (Dasatinib + Linsitinib; first compound 0.05 µM) | relative viability (Dasatinib + Linsitinib; first compound 0.1581 µM) | relative viability (Dasatinib + Linsitinib; first compound 0.5 µM) | relative viability (Dasatinib + Lapatinib; first compound 0.005 µM) | relative viability (Dasatinib + Lapatinib; first compound 0.01581 µM) | relative viability (Dasatinib + Lapatinib; first compound 0.05 µM) | relative viability (Dasatinib + Lapatinib; first compound 0.1581 µM) | relative viability (Dasatinib + Lapatinib; first compound 0.5 µM) | relative viability (XMD13-2 + Olaparib; first compound 0.05 µM) | relative viability (XMD13-2 + Olaparib; first compound 0.1581 µM) | relative viability (XMD13-2 + Olaparib; first compound 0.5 µM) | relative viability (XMD13-2 + Olaparib; first compound 1.581 µM) | relative viability (XMD13-2 + Olaparib; first compound 5 µM) |
| --- | --- | --- | --- | --- | --- | --- | --- | --- | --- | --- | --- | --- | --- | --- | --- | --- | --- | --- | --- | --- |
| 201T | 1.02 | 1.03 | 1.02 | 1 | 1.02 | 1.03 | 0.953 | 0.812 | 0.679 | 0.371 | 0.931 | 0.81 | 0.924 | 0.875 | 0.486 | 0.851 | 0.866 | 0.856 | 0.811 | 0.876 |
| A549 | 1.28 | 1.02 | 1.06 | 0.963 | 0.962 | 0.518 | 0.348 | 0.34 | 0.211 | 0.0589 | 0.955 | 0.824 | 0.83 | 0.673 | 0.194 | 0.415 | 0.185 | 0.453 | 0.358 | 0.437 |
| A-427 | 1.12 | 0.921 | 1.01 | 0.904 | 0.744 | 1.1 | 1.14 | 0.995 | 0.574 | 0.535 | 0.89 | 1.06 | 0.893 | 0.646 | 0.551 | 0.814 | 0.688 | 0.728 | – | 0.485 |
| ABC-1 | 1.02 | 0.873 | 1.01 | 0.745 | 0.472 | 0.743 | 0.704 | 0.592 | 0.452 | 0.49 | 0.993 | 0.896 | 1.38 | 0.872 | 0.693 | 0.925 | 0.869 | 1.08 | – | 0.688 |
| BEN | 1.07 | 1.01 | 0.992 | 0.874 | 0.933 | 0.776 | 0.476 | 0.531 | 0.38 | 0.322 | 0.617 | 0.362 | 0.432 | 0.312 | 0.336 | 0.925 | 0.94 | 0.941 | 1.12 | 0.995 |
| CAL-12T | 1.05 | 0.961 | 1.06 | 0.887 | 1.02 | 0.848 | 0.853 | 0.853 | 0.46 | 0.286 | 0.624 | 0.551 | 0.597 | 0.252 | 0.172 | 0.694 | 0.799 | 0.708 | 0.695 | 0.697 |
| COR-L23 | 1.21 | 0.993 | 1.11 | 0.969 | 0.986 | 0.867 | 0.665 | 0.613 | 0.329 | 0.242 | 0.983 | 0.853 | 0.955 | 0.74 | 0.737 | 0.327 | 0.36 | 0.33 | 0.336 | 0.387 |
| COR-L 105 | 1.25 | 1.08 | 0.911 | 0.947 | 0.858 | 0.753 | 0.522 | 0.689 | 0.366 | 0.263 | 0.352 | 0.301 | 0.28 | 0.256 | 0.318 | 0.606 | 0.678 | 0.656 | 0.564 | 0.759 |
| Calu-6 | 1.05 | 1.08 | 1.07 | 0.99 | 1.04 | 0.764 | 0.811 | 0.694 | 0.561 | 0.424 | 0.924 | 0.776 | 0.848 | 0.642 | 0.59 | 0.615 | 0.586 | – | 0.605 | 0.512 |
| ChaGo-K-1 | 1.02 | 0.99 | 1.04 | 1.03 | 0.93 | – | – | – | – | – | – | – | – | – | – | 0.439 | 0.436 | 0.438 | 0.387 | 0.358 |
| EBC-1 | 1.07 | 1.09 | 1 | 0.858 | 0.508 | 0.787 | 0.805 | 0.782 | 0.589 | 0.467 | 0.248 | 0.217 | 0.236 | 0.233 | 0.252 | 0.768 | 0.78 | 0.837 | 0.545 | 0.277 |
| EKVX | 1.08 | 0.915 | 0.969 | 0.923 | 1.07 | 0.945 | 0.683 | 0.778 | 0.314 | 0.142 | 0.205 | 0.165 | 0.149 | 0.123 | 0.0913 | 0.984 | 0.871 | 0.907 | – | 0.907 |
| EMC-BAC-2 | 1.13 | 0.896 | 1.02 | 0.616 | 0.79 | 0.685 | 0.482 | 0.525 | 0.26 | 0.201 | 0.936 | 0.708 | 0.613 | 0.667 | 0.334 | 0.575 | 0.526 | 0.499 | 0.465 | 0.439 |
| EPLC-272H | 1.18 | 0.882 | 1.16 | 0.738 | 0.646 | 1.24 | 1.28 | 1.46 | 0.92 | 0.338 | 0.866 | 0.913 | 0.938 | 0.79 | 0.346 | 0.976 | 0.854 | 0.748 | 0.528 | 0.172 |
| H3255 | 1.18 | 0.949 | 0.95 | 0.892 | 0.895 | 0.929 | 0.918 | 0.957 | 0.658 | 0.287 | 0.303 | 0.212 | 0.208 | 0.155 | 0.204 | 0.635 | 0.634 | 0.584 | 0.519 | 0.558 |
| HARA | 1.13 | 0.95 | 0.963 | 0.943 | 1.12 | 0.971 | 0.67 | 0.516 | 0.247 | 0.189 | 0.851 | 0.701 | 0.505 | 0.201 | 0.137 | 0.76 | 1.11 | 0.831 | 0.987 | 0.643 |
